Assay results taken from article PMC9352624, “Going deeper into the toxicokinetics of synthetic cannabinoids: in vitro contribution of human carboxylesterases” (Archives of Toxicology, 2022).

Columns and labels:
hCES1b [1] = target: T1, hCES1b (Homo sapiens, UniProt P23141); assay: Initial activity screening of AB-PINACA (Thomsen et al. conditions) with hCES1b; type: in vitro ADME; parameters: purchased Corning (Amsterdam, The Netherlands); host or cells: baculovirus transfected insect cells; conditions: 10 µM, 20 min, 37 °C, 0.1 µg/µL protein
T1 sequence (P23141 18-567): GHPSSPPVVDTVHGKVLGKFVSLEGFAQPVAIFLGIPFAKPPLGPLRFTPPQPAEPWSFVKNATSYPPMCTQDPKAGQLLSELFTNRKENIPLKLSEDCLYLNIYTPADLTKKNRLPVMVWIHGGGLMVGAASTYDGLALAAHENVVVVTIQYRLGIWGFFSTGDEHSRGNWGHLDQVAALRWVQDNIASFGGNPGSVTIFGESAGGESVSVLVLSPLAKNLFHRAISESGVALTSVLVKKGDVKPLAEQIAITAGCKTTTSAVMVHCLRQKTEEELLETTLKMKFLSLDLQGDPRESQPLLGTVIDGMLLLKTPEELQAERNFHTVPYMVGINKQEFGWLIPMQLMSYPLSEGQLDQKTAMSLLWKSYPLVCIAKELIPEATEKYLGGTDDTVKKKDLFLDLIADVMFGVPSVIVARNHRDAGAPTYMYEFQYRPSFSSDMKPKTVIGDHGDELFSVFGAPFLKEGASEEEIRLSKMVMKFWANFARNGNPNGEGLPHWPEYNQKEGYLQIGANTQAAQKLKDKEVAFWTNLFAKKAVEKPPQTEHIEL
Method: (§1) The initial activity screening with AB-PINACA was conducted as described by Thomsen et al. with minor modifications (Thomsen et al. [2015]). […] All incubations were done in duplicate. […] Afterwards, 110 µL of 0.1% formic acid in water was added. […] Furthermore, 1 µL was analyzed by liquid chromatography–high-resolution tandem mass spectrometry (LC–HRMS/MS, apparatus details given in the Electronic Supplementary Material).
(§2) Data analysis was based on peak areas.

hCES2 [2] = target: T2, hCES2 (Homo sapiens, UniProt O00748); assay: Initial activity screening of AB-PINACA (Thomsen et al. conditions) with hCES2; type: in vitro ADME; parameters: purchased Corning (Amsterdam, The Netherlands); host or cells: baculovirus transfected insect cells; conditions: 10 µM, 20 min, 37 °C, 0.1 µg/µL protein
T2 sequence (O00748 27-559): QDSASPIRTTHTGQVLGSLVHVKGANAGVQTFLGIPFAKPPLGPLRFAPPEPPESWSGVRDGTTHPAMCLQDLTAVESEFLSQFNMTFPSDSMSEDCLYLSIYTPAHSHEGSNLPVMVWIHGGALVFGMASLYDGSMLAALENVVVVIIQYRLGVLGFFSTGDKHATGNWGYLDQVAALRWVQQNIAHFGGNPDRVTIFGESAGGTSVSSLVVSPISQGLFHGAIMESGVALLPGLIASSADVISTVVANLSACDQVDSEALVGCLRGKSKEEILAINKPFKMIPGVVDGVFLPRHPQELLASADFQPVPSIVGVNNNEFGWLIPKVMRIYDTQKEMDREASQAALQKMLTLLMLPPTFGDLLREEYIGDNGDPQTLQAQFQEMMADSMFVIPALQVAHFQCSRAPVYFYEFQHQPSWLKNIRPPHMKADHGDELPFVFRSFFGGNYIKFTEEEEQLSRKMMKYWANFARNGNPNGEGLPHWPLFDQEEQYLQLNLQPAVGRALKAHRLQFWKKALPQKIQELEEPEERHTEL
Method: as §1, §2

[3] = Initial activity screening of AB-PINACA (Thomsen et al. conditions) with pHLS9; type: in vitro ADME, human; conditions: 10 µM, 20 min, 37 °C, 1 µg/µL protein
Method: as §1, §2

hCES1c [4] = target: T3, hCES1c (Homo sapiens, UniProt P23141); assay: Initial activity screening of AB-PINACA (Thomsen et al. conditions) with hCES1c; type: in vitro ADME; parameters: purchased Corning (Amsterdam, The Netherlands); host or cells: baculovirus transfected insect cells; conditions: 10 µM, 20 min, 37 °C, 0.1 µg/µL protein
T3 sequence (P23141 18-566 isoform P23141-3 limits assumed): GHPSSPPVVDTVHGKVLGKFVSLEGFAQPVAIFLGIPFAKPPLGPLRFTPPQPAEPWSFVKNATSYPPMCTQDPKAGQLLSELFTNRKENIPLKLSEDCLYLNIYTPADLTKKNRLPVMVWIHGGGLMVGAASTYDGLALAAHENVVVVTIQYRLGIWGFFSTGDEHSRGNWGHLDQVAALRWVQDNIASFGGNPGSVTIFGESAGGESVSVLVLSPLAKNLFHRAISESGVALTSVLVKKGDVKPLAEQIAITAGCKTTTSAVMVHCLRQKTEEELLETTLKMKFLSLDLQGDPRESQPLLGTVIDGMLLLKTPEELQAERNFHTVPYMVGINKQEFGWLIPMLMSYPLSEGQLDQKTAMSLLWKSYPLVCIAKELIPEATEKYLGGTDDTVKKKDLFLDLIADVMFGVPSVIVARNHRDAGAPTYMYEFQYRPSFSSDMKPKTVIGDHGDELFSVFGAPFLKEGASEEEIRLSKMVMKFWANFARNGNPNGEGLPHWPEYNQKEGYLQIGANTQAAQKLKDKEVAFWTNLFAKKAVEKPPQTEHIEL
Method: as §1, §2

[5] = Initial activity screening of AB-PINACA (Thomsen et al. conditions) with pHLM; type: in vitro ADME, human; conditions: 10 µM, 20 min, 37 °C, 1 µg/µL protein
Method: as §1, §2

hCES1c [6] = target: T3, hCES1c; assay: Enzyme kinetic studies of ester hydrolysis with hCES1c
hCES2 [7] = target: T2, hCES2; assay: Initial activity screening with recombinant hCES2; conditions: 100 µM substrate, 30 min, 37 °C, 0.2 µg/µL protein, LC–ITMS
hCES1b [8] = target: T1, hCES1b; assay: Initial activity screening with recombinant hCES1b; conditions: 100 µM substrate, 30 min, 37 °C, 0.2 µg/µL protein, LC–ITMS
[9] = Initial activity screening with pooled human liver S9 fraction; conditions: 100 µM substrate, 30 min, 37 °C, 2 µg/µL protein, LC–ITMS, mean n = 2
[10] = Initial activity screening with pooled human liver microsomes; conditions: 100 µM substrate, 30 min, 37 °C, 2 µg/µL protein, LC–ITMS, mean n = 2
hCES1b [11] = target: T1, hCES1b; assay: Enzyme kinetic studies of ester hydrolysis with hCES1b
hCES1c [12] = target: T3, hCES1c; assay: Initial activity screening with recombinant hCES1c; conditions: 100 µM substrate, 30 min, 37 °C, 0.2 µg/µL protein, LC–ITMS
not read [13] = substrate: COC(=O)C(Cc1ccccc1)NC(=O)c1cn(CCCCCF)c2ccccc12; assay: not read; conditions: other: ± S.D.; Michaelis–Menten fit, conditions of Table 1; pH 7.4
not read [14] = substrate: C=CCCCn1cc(C(=O)N[C@H](C(=O)OC)C(C)C)c2ccccc21; assay: not read; conditions: other: ± S.D.; Michaelis–Menten fit, conditions of Table 1; pH 7.4
[15] = ± S.D., peak area ratio metabolite/internal standard

With `CCCCCn1nc(C(=O)N[C@H](C(N)=O)C(C)C)c2ccccc21` [AB-PINACA, (S)-N-(1-amino-3-methyl-1-oxobutan-2-yl)-1-pentyl-1H-indazole-3-carboxamide] the “Relative amount of carboxylic acid metabolite formed (head group carboxamide hydrolysis), hCES1b” value (hCES1b [1]; LC–HRMS/MS) was 1.4%, the “Metabolite detection by LC–ITMS, hCES1b” value (hCES1b [1]; LC–ITMS) was “no AB-PINACA metabolites were detected” and the “Metabolite detection by LC–ITMS, hCES2” value (hCES2 [2]) was “no AB-PINACA metabolites were detected”. For the same molecule, the “Relative amount of carboxylic acid metabolite formed (head group carboxamide hydrolysis), pHLS9” value ([3]; LC–HRMS/MS) was 2.2%, the “Metabolite detection by LC–ITMS, pHLS9” value ([3]; LC–ITMS) was “no AB-PINACA metabolites were detected” and the “Metabolite detection by LC–ITMS, hCES1c” value (hCES1c [4]) was “no AB-PINACA metabolites were detected”. The “Relative amount of carboxylic acid metabolite formed (head group carboxamide hydrolysis), pHLM” value ([5]; LC–HRMS/MS) was 4.3% and the “Metabolite detection by LC–ITMS, pHLM” value ([5]; LC–ITMS) was “no AB-PINACA metabolites were detected”.

With “N-[(2S)-1-amino-3,3-dimethyl-1-oxobutan-2-yl]-1-[(4-fluorophenyl)methyl]-1H-indazole-3-carboxamide [MMB-FUBINACA]” the “Clint (relative in vitro intrinsic clearance), hCES1c” value (hCES1c [6]; Clint = Vmax/Km) was 1.2 AU/min/mg/µM, the Km (hCES1c [6]; read-out: Km, ester hydrolysis by hCES1c, ± S.D., Michaelis–Menten fit, conditions of Table 1) was 25.7 ± 3.5 µM and the “Vmax (relative), ester hydrolysis by hCES1c” value (hCES1c [6]; [15]) was 30.7 ± 0.96 AU/min/mg. For the same molecule, the “Hydrolysis of carboxamide linker, hCES2” value (hCES2 [7]) was “−”, the “Hydrolysis of carboxamide/ester in head group, hCES2” value (hCES2 [7]) was “+” and the “Relative amount of hydrolysis metabolite formed, hCES2” value (hCES2 [7]; mean n = 2) was 3.2%. For the same molecule, the “Hydrolysis of carboxamide linker, hCES1b” value (hCES1b [8]) was “−”, the “Hydrolysis of carboxamide/ester in head group, hCES1b” value (hCES1b [8]) was “+” and the “Relative amount of hydrolysis metabolite formed, hCES1b” value (hCES1b [8]; mean n = 2) was 78%. For the same molecule, the “Relative amount of hydrolysis metabolite formed, pHLS9” value [9] was “complete transformation”, the “Relative amount of hydrolysis metabolite formed, pHLM” value [10] was “complete transformation” and the “Clint (relative in vitro intrinsic clearance), hCES1b” value (hCES1b [11]; Clint = Vmax/Km) was 1.7 AU/min/mg/µM. The Km (hCES1b [11]; read-out: Km, ester hydrolysis by hCES1b, ± S.D., Michaelis–Menten fit, conditions of Table 1) was 40.8 ± 15 µM, the “Vmax (relative), ester hydrolysis by hCES1b” value (hCES1b [11]; [15]) was 70.3 ± 7.6 AU/min/mg and the “Hydrolysis of carboxamide linker, hCES1c” value (hCES1c [12]) was “−”. For the same molecule, the “Hydrolysis of carboxamide/ester in head group, hCES1c” value (hCES1c [12]) was “+” and the “Relative amount of hydrolysis metabolite formed, hCES1c” value (hCES1c [12]; mean n = 2) was 87%.

B1: hCES1c (Homo sapiens) (protein)
chain: GHPSSPPVVDTVHGKVLGKFVSLEGFAQPVAIFLGIPFAKPPLGPLRFTPPQPAEPWSFVKNATSYPPMCTQDPKAGQLLSELFTNRKENIPLKLSEDCLYLNIYTPADLTKKNRLPVMVWIHGGGLMVGAASTYDGLALAAHENVVVVTIQYRLGIWGFFSTGDEHSRGNWGHLDQVAALRWVQDNIASFGGNPGSVTIFGESAGGESVSVLVLSPLAKNLFHRAISESGVALTSVLVKKGDVKPLAEQIAITAGCKTTTSAVMVHCLRQKTEEELLETTLKMKFLSLDLQGDPRESQPLLGTVIDGMLLLKTPEELQAERNFHTVPYMVGINKQEFGWLIPMLMSYPLSEGQLDQKTAMSLLWKSYPLVCIAKELIPEATEKYLGGTDDTVKKKDLFLDLIADVMFGVPSVIVARNHRDAGAPTYMYEFQYRPSFSSDMKPKTVIGDHGDELFSVFGAPFLKEGASEEEIRLSKMVMKFWANFARNGNPNGEGLPHWPEYNQKEGYLQIGANTQAAQKLKDKEVAFWTNLFAKKAVEKPPQTEHIEL
In the case of B1, the Km (not read [13]) is reported as 23.2 ± 4.1 µM and the Km (not read [14]) is reported as 203 ± 43 µM.

B2: hCES1b (Homo sapiens) (protein)
chain: GHPSSPPVVDTVHGKVLGKFVSLEGFAQPVAIFLGIPFAKPPLGPLRFTPPQPAEPWSFVKNATSYPPMCTQDPKAGQLLSELFTNRKENIPLKLSEDCLYLNIYTPADLTKKNRLPVMVWIHGGGLMVGAASTYDGLALAAHENVVVVTIQYRLGIWGFFSTGDEHSRGNWGHLDQVAALRWVQDNIASFGGNPGSVTIFGESAGGESVSVLVLSPLAKNLFHRAISESGVALTSVLVKKGDVKPLAEQIAITAGCKTTTSAVMVHCLRQKTEEELLETTLKMKFLSLDLQGDPRESQPLLGTVIDGMLLLKTPEELQAERNFHTVPYMVGINKQEFGWLIPMQLMSYPLSEGQLDQKTAMSLLWKSYPLVCIAKELIPEATEKYLGGTDDTVKKKDLFLDLIADVMFGVPSVIVARNHRDAGAPTYMYEFQYRPSFSSDMKPKTVIGDHGDELFSVFGAPFLKEGASEEEIRLSKMVMKFWANFARNGNPNGEGLPHWPEYNQKEGYLQIGANTQAAQKLKDKEVAFWTNLFAKKAVEKPPQTEHIEL
B2 showed a Km (not read [13]) of 88.9 ± 18 µM.
